ChEMBL document CHEMBL3507680, “University of Dundee, Gates Library screen for HepG2 cell viability”

Assay: Human HepG2 cell viability assay in 384 well format
Assay type: toxicity, cell-based
Design: dose 125 nL, time 70.5 hour; cytotoxicity at 70.5 h: concentration not given beside the values
Details: HepG2 cells, read-out: Inhibition

Row | Structure (SMILES) | cytotoxicity at 70.5 h
1 | O[C@@H]1C[C@H]2CN(Cc3ccsc3)[C@@H](Cc3ccccc3)CN2C1 | -1.32%
2 | COCCCN(Cc1ccncc1)c1ncc(C#N)cc1Cl | -0.375%
3 | Cc1nn(C)c(C)c1CCNC(C)c1ccc(-n2ccnc2C)cc1 (configuration not stated) | -2.24%
4 | Cc1nc(CN2CCCN(C(=O)c3c(C)noc3C)CC2)cs1 | -5.02%
5 | CN(CCOCC1CC1)C(=O)Cn1cccc(C(F)(F)F)c1=O | -1.06%
6 | Cc1nc2ccn(C(C)C)c(=O)c2cc1C(=O)O | -24.7%
7 | COCCN1CCC(CNC(=O)C2(c3ccccc3)CCC2)C1 (configuration not stated) | -3.28%
8 | O=C1COc2ccc(S(=O)(=O)NCCC3=CCCCC3)cc2N1 | 0.831%
9 | CCN1CCCC(O)(CNCc2ccccn2)C1 (configuration not stated) | -8.08%
10 | O=C(c1ccc2[nH]cnc2c1)N1CCCC1Cn1cccn1 (configuration not stated) | -8.04%
11 | Cn1ccnc1CN1CCCN(C(=O)c2ccc(Cl)o2)CC1 | -8.18%
12 | Fc1ccccc1CN1CCCC(NC2CCOCC2)C1 (configuration not stated) | -9.48%
13 | O=C1CCCCCN1CCc1nc(-c2cccnn2)no1 | -6.78%
14 | CCn1ccnc1CN1CCN(Cc2ccccn2)CC1C (configuration not stated) | 9.97%
15 | CN(Cc1cccnc1)Cc1cn2c(n1)CN(C1CCOCC1)CC2 | -4.27%
16 | O=C(CN1CCCCC1)Nc1ncc(Br)cc1Br | 48.9%
17 | CC(Nc1ccc(F)cc1)c1nnnn1-c1ccccc1 (configuration not stated) | -109%
18 | Nc1nc2c(c(N3CCCC(c4nnc5ccccn45)C3)n1)CCNC2 (configuration not stated) | -2.11%
19 | CCOc1nnc(CN(C)C2CCCN(c3ccc(C)nn3)C2)s1 (configuration not stated) | -3.1%
20 | COc1ccc(CN(C)CC(=O)Nc2ccc3[nH]c(=O)[nH]c3c2)cc1F | -8.14%
21 | Cc1nn(C)c(C)c1CC(=O)N1CCCC1Cn1cccn1 (configuration not stated) | -5%

Row | Structure (SMILES) | cytotoxicity at 70.5 h
22 | COCCN1CCCC2(CCN(c3ncnc(C)c3C)C2)C1=O (configuration not stated) | 15.5%
23 | CN(C)CCN1C(=O)CCCC12CCCN(Cc1ccc[nH]1)C2 (configuration not stated) | 26%
24 | O=C1CCCN1c1cccc(CNCc2nc(-c3ccco3)no2)c1 | -17.4%
25 | Cn1cc(N2CCN(c3ccc(C#N)c(Cl)c3)CC2=O)cn1 | -14.1%
26 | COCCC1CCCCN1C(=O)c1coc(COc2ccccc2F)n1 (configuration not stated) | -1.11%
27 | COc1c(C)cnc(CN(C)C(=O)c2ccc(C3CCCO3)s2)c1C (configuration not stated) | -6.12%
28 | Cc1cc(-c2nn(C)c(Cl)c2CN2CCCCC(N)C2)no1 (configuration not stated) | -1.48%
29 | Cc1nccc(CC2COCCN(c3cnccn3)C2)n1 (configuration not stated) | 22.7%
30 | Cc1ccc(CNC(CN2CCN(C)CC2)c2ccccc2)cc1 (configuration not stated) | 3.21%
31 | COCCN1CCc2ncnc(NC(C)C)c2CC1 | -5.11%
32 | Fc1ccccc1-c1noc2c1CN(CC1CC1)CC2 | -3.89%
33 | COc1ncccc1C(=O)N1CCCC1c1c(C)n[nH]c1C (configuration not stated) | 37.5%
34 | Cc1ccc(CNC(=O)CC2C(=O)NCCN2Cc2ccccc2C)s1 (configuration not stated) | -0.0744%
35 | Cc1noc(C)c1CNCC1COCc2c(-c3ccsc3)nnn2C1 (configuration not stated) | -15.2%
36 | COc1ccc(CN2C[C@@H]3CCCO[C@@H]3[C@H](NS(C)(=O)=O)C2)cc1 | -9.16%
37 | CN1CCC(NCC2(O)CCCN(Cc3ccccc3F)C2=O)CC1 (configuration not stated) | -4.92%
38 | CC[C@@H]1C[C@H](C(F)(F)F)n2nc(C3CCN(S(=O)(=O)CC)CC3)cc2N1 | 18.8%
39 | CCN1CCN(C(=O)COCc2cccc(OC)c2)CC1 | -6.27%
40 | Cc1cccc(CN2C(=O)CO[C@@H]3CN(C4CCOCC4)C[C@H]32)c1 | 0.326%
41 | Cc1nc(O)c2nnn(C[C@H]3CCCN3C(=O)c3cccs3)c2n1 | -7.34%
42 | Cn1ccc(C(=O)N2CCCC(Cc3cccc4ncccc34)C2)n1 (configuration not stated) | 35.2%

Row | Structure (SMILES) | cytotoxicity at 70.5 h
43 | O=C(CS(=O)(=O)Cc1nnnn1C1CC1)NCC1CC1 | -4.04%
44 | CCC1=N[C@@]2(CC[C@@H]3CN(Cc4ccc(F)cc4)C[C@@H]32)C(=O)N1C | 0.293%
45 | CN1CCN(CC(C)(C)C)CC1CCO (configuration not stated) | -3.64%
46 | Cc1cnn(CC2CN(CCCS(=O)(=O)N(C)C)CCO2)c1 (configuration not stated) | -10.7%
47 | CCOc1ccc(Cl)c(C(=O)N(C)C)n1 | -2.99%
48 | FC(F)(F)CN1CCC(CCNc2ncccn2)CC1 | 0.447%
49 | CCCS(=O)(=O)NCc1cccnc1OCc1ccccc1 | -7.41%
50 | Cn1ccnc1COc1ccc(CSc2nnnn2C)cc1 | -11.4%
51 | CS(=O)(=O)NC[C@H]1OC[C@H]2CN(Cc3ccsc3)CC[C@H]21 | 2.09%
52 | COc1ccccc1CC(NC(=O)N1CCC[C@@H]1CO)C(C)C (some centres not stated) | -6.32%
53 | Cc1nnc(N2CCN(C)C3(CCC(=O)N(CCO)CC3)C2)s1 (configuration not stated) | 22.1%
54 | COc1cc(I)c(Cl)cc1C(=O)N(C)CC(C)(C)O | 21%
55 | COCCNC(=O)[C@@]12CCO[C@@H]1CCN(Cc1c(C)noc1C)C2 | -5.87%
56 | CC(C)Cc1noc(C2CCCN(C(=O)CCc3cnn(C)c3)C2)n1 (configuration not stated) | -8.4%
57 | O=C(CCN1CCCC(CC2CC2)(C(=O)O)C1)NC1CCCC1 (configuration not stated) | -9.72%
58 | CSc1ncccc1C(=O)NCCC(O)c1cc(C)oc1C (configuration not stated) | -1.76%
59 | CN(C)C(=O)N1CCn2nc(CNC(=O)CCc3ccccn3)cc2C1 | 13.6%
60 | COC(=O)C1CCCCN1C(=O)c1ccccc1F (configuration not stated) | -2.94%
61 | O=C([C@@H]1CCO[C@@H]2CCN(Cc3cccs3)C[C@H]21)N1CCCCO1 | -18.4%
62 | O=C(Nc1cccnc1-n1cccn1)N1CCCC(N2CCCC2)C1 (configuration not stated) | -4.62%
63 | CN(C)c1nc(-c2ccncc2)nc2c1CCN(C(=O)[C@H](N)CO)C2 | -6.08%

Row | Structure (SMILES) | cytotoxicity at 70.5 h
64 | Cc1cc(F)ccc1CN1CCC(O)(CN2CCCCC2)C1 (configuration not stated) | -1.38%
65 | COC(=O)c1cc2c(=O)[nH]c(=O)n(CCc3ccccc3)c2nc1C | 4.39%
66 | COc1cc(CNc2nc(N3CCOCC3)ns2)cc(OC)c1OC | -5.63%
67 | O=C1CC2(CCN(C(=O)c3csc(-c4ccccc4)n3)C2)C(=O)N1 (configuration not stated) | -5.85%
68 | CC(C)c1nnc(CN2CCCC(Cn3cncn3)C2)o1 (configuration not stated) | -7.64%
69 | CCc1ccc(C(=O)Nc2cccc(CN3CCCC3C(N)=O)c2)cc1 (configuration not stated) | 0.802%
70 | CC(C)C1SCC(=O)Nc2c1cnn2C(C)C (configuration not stated) | -23.1%
71 | CCOCCCC(=O)N1CCN(C(=O)Cc2cccc(OC)c2)CC1 | -5.09%
72 | CC(C)c1cc(=O)[nH]c(-c2ccccc2CN2CCCC2C)n1 (configuration not stated) | -19.9%
73 | Cc1cnn(CCNCc2ccc(OCC(N)=O)cc2)c1 | -6.65%
74 | O=C(NCc1cccnc1)c1nc2c(s1)CCCN2C(=O)C1CC1 | -3.72%
75 | Cn1nc(CN2CCC(c3ccncc3)CC2)c2c(Cl)cccc21 | -0.977%
76 | COc1ccc(C(=O)c2cnc(C(C)C)n2C)cc1 | 17.7%
77 | O=C(c1cccnc1)N1CCCC(c2cc(C(F)F)n3ncnc3n2)C1 (configuration not stated) | -13.8%
78 | Cc1cccc(OC2CCN(C(=O)NCCn3ccnc3)CC2)c1C | -3.44%
79 | O=C1N(c2cccnc2)CCC12CCCN(Cc1cccnc1)C2 (configuration not stated) | -4.25%
80 | Cc1nn(C)c2c(NCCCn3cccn3)nc(C3CC3)nc12 | -5.95%
81 | Cc1cnn(CC(C)NCC(=O)NCCc2cccs2)c1 (configuration not stated) | 10.8%
82 | CC(C)Nc1cccc(CC2CCN(S(C)(=O)=O)CC2)n1 | 19.5%
